Data reported in patent US8193224B2, “Medicinal composition for prevention or treatment of parasitic protozoan infection” (Fujifilm Corporation, priority 2004, dated 2012).
pEC50: −log10 of the molar value.

Columns and labels:
Format in all cases: cell-based
[1] = tested on: Trypanosoma cruzi (Tulahuen C2C4 strain); test: American trypanosome protozoa growth inhibition screening test; details: for pEC50: Trypanosoma cruzi, Tulahuen C2C4 strain in rat L6 cells, 96 hours, CPRG/Nonidet, read-out: 50% growth inhibition concentration Trypanosoma cruzi; for Selective toxicity: chemotherapy index = EC50 rat L6 cells / EC50 American trypanosome protozoa
Description: In the present example, amastigote and trypomastigote infected with rat L6 cells of protozoa of Trypanosoma cruzi (Tulahuen C2C4 strain) were used. As medium used in the test, RPMI 1640 medium containing L6 cells was supplemented so that L-glutamine (200 mM) becomes 1%, fetal bovine serum becomes 10%, which was cultured under CO2 concentration 5%, at 37° C.
The compounds of the present invention to be used in the test and the positive target agent (benznidazole) were dissolved in DMSO to make a test solution of a predetermined concentration. A medium containing 5×10^3 protozoa was added to wells of a 96-well culture plate, and pre-cultured for 48 hours. After replacing the medium, test solution containing drug of a predetermined concentration or a drug-free DMSO was added. Test solutions were taken by duplicates. After culturing the culture plate in an incubator for 96 hours, growth inhibition activity was tested. Test was conducted as follows.
50 μL of CPRG/Nonidet was added to each well, and allowed to rest for 2 to 6 hours. Next, the culture plate was placed on a fluorescent micro-plate reader, and the absorbance was measured at 540 nm. Growth inhibition rate was calculated with the following formula based on the protozoan infection rate which was obtained by calculating trypanosome infection rate of the test solution added group and control group, to obtain a 50% growth inhibition concentration (EC50). Growth inhibition rate (%)={1−(b−a)/(c−a)}×100 a: early infection rate b: infection rate when test solution was added c: infection rate of the control

[2] = tested on: Trypanosoma brucei rhodensiense (STIB 900 strain); test: African trypanosome protozoa growth inhibition screening test; details: Trypanosoma brucei, STIB900; STIB 900 strain, blood stream form, 72 hours, Alamar Blue; read-out: 50% growth inhibiting concentration Trypanosoma brucei rhod.
Description: In the present example, protozoa of Trypanosoma brucei rhodensiense (STIB 900 strain), a trypamastigote living in blood stream, was used. The medium used in the experiment was a MEM medium which was sterilized with a filter and supplemented with 25 mM N-2-hydroxyethylpiperazine-2-ethansulfonic acid […]), 1 g/L glucose, 1% MEM non-essential amino acid, 0.2 mM 2-mercaptoethanol, 2 mM sodium pyruvate, 0.1 mM hypoxanthine, and 15% heat-treated horse serum. The protozoa was cultured in an atmosphere of CO2 concentration 5%, at a temperature of 37° C.
The compounds of the present invention to be used in the present test and the positive target drug (melarsoprol) were dissolved in DMSO to make a test solution of a predetermined concentration. A medium containing 8×10^3 protozoa, and a test solution containing a drug of a predetermined concentration or a drug-free DMSO were added to wells of a 96-well culture plate, and subsequently, medium was added so that the amount in each well becomes 100 μL. Test solutions were taken by duplicates. After culturing the culture plate for 72 hours in an incubator, growth inhibition activity was tested. Test was conducted as follows. 10 μL of Alamar Blue aqueous solution was added to each well, and the resultant was further cultured for 2 hours. Next, the culture plate was placed on a fluorescent micro-plate reader (Spectramax Gemeni XS; US Molecular Device), radiated at an excited wavelength of 536 nm. Fluorescent intensity was measured at 588 nm, to calculate the trypanosome protozoa infected rate of the test solution added-group, and of the control group. From the protozoan infection rate obtained in the above, growth inhibition rate was calculated with the following formula, to obtain a 50% growth inhibition concentration (EC50). Growth inhibition rate (%)={1−(b−a)/(c−a)}×100 a: early infection rate b: infection rate when test solution was added c: infection rate of the control

[3] = tested on: Plasmodium falciparum K1 strain; test: Chloroquine resistant-Plasmodium falciparum growth inhibition screening test; details: for pEC50: Plasmodium falciparum, 72 h, chloroquine resistant K1 strain, 3H-hypoxanthine, 48 + 24 hours, read-out: 50% growth inhibition concentration P. falciparum K1; for Selective toxicity: chemotherapy index = EC50 rat L6 cells / EC50 chloroquine resistant P. falciparum
Description: In the present example, protozoa of Plasmodium falciparum K1 strain was used. RPMI-1640 medium sterilized with a filter to which human serum was added to be 5%, was used in the experiment. Malarial parasites were cultured under 3% O2 concentration, 4% Co2 concentration, 93% N2 concentration, and at a temperature of 37° C.
The compounds of the present invention to be used in the present test and the positive target drug (chloroquine) were dissolved in DMSO to make a test solution of a predetermined concentration. Cultured malarial parasite infected-erythrocytes were collected by centrifugation, and diluted with non-infected erythrocyte so that the early infection rate is 0.15%. Hematocrit level at that time was 2.5%. 200 μL of malaria infected solution was added to wells of a 96-well culture plate, and adjusted by adding a test solution containing drug of a predetermined concentration or a drug-free DMSO. Test solutions were taken by duplicates. After culturing for 48 hours at 37° C., 0.5 μCi radioactive tritium (3H)-labeled hypoxanthine was added to each well. After further culturing for 24 hours under the same conditions, it was collected on a glass fiber filter and washed with distilled water. Radiation intensity was measured with a beta plate liquid scintillation counter (Wallac), and malarial parasite infection rates of the test solution added group and of the control group were calculated. Growth inhibition rate was calculated with the following formula based on the malarial parasite infection rate obtained in the above, to obtain a 50% growth inhibition concentration (EC50). Growth inhibition rate (%)={1−(b−a)/(c−a)}×100 a: early infection rate b: infection rate when test solution was added c: infection rate of the control

[4] = tested on: Trypanosoma brucei rhodensiense (STIB 900 strain); test: African trypanosome protozoa growth inhibition screening test; details: chemotherapy index = EC50 rat L6 cells / EC50 African trypanosome protozoa

Compound	pEC50 [1]	Selective toxicity [1]	pEC50 [2]	pEC50 [3]	Selective toxicity [3]	Selective toxicity [4]
CCN1C(C)=CS/C1=C\C=c1/s/c(=C\c2sc3ccccc3[n+]2CC)n(CC)c1=O [A-15]	6.01	22	7.05	7.12	291	250
CCN1/C(=C/C=c2\s/c(=C\c3sc4c5ccccc5ccc4[n+]3CC)n(CC)c2=O)Sc2ccc3ccccc3c21 [A-1]	5.29	5.9	7.80	7.96	2700	1900
CCN1/C(=C/C=c2\s/c(=C\C3=[N+](CC)CCS3)n(CC)c2=O)C=Cc2ccccc21 [A-10]	6.80	130	6.70	6.92	170	100
